According to patent US20130017537A1, “METHOD OF IN-VITRO IMMUNOASSAY” (BASF Beauty Care Solutions France S.A.S., priority 2011, published 2013):
Where “and” joins values, the source holds several entries; their conditions need not be identical. Equal values may be shown once.

Key:
[1] = test system: normal human fibroblasts; assay: Double-stranded DNA assay in the cell lysate (bisbenzimide, Picogreen) for quantity of viable cells; type: cell-based; design: unit not given here
Procedure: The lysate was collected and analysed. The double-stranded DNA contained in the lysate was assayed by using the bisbenzimide method (Picogreen Kit, Invitrogen). On the collected lysis medium, a procollagen assay (PIPc kit, TAKARA) by ELISA is carried out for determining the amount of intracellular procollagen (Table 4.2). A DNA assay (Picogreen kit, Invitrogen) was also carried out for rationalizing all of the measurements in each well to the quantity of viable cells.

[2] = test system: type V collagen in the ECM; assay: Assay of type V collagen in the ECM (anticollagen V antibody, europium TRF, Delfia) after NH4OH lysis of fibroblasts; type: cell-based, human; conditions: for Coll V (RFU) Mean: 48 hours, donor; for Versus control Mean (Coll V): control = 100.00
Procedure: A lysis step was carried out: 110 μl of an ammonium hydroxide solution at 20 mM for 10 minutes at room temperature and with stirring. The collagen V in the ECM was assayed directly on the ECM by using an anticollagen V antibody. A secondary antibody conjugated to europium was used with a detection reagent and the fluorescence was measured. (Delfia® kit—Perkin Elmer). The experiment was carried out according to the protocol described in example 1 with fibroblasts extracted from a biopsy from a donor.

[3] = test system: intracellular procollagen; assay: Procollagen ELISA (PIPc kit) on collected lysis medium; type: cell-based, human; conditions: for Procoll Mean (intracellular procollagen) / Ratio: Procoll/DNA Mean / Stat Mean (Procoll/DNA, control = 100.00): lysis medium
Procedure: The method described in example 1 was applied and the culture medium and lysis medium collected were analysed. On the collected lysis medium, a procollagen assay (PIPc kit, TAKARA) by ELISA is carried out for determining the amount of intracellular procollagen (Table 4.2). A DNA assay (Picogreen kit, Invitrogen) was also carried out for rationalizing all of the measurements in each well to the quantity of viable cells. The amounts of collagen and procollagen measured were rationalized to the amount of DNA present in each well.

[4] = test system: extracellular procollagen; assay: Procollagen ELISA (PIPc kit) on collected culture medium; type: cell-based, human
Procedure: The method described in example 1 was applied and the culture medium and lysis medium collected were analysed. On the collected culture medium, a procollagen assay was carried out (PIPc kit, TAKARA) by ELISA for determining the amount of extracellular procollagen (Table 4.1) The amounts of collagen and procollagen measured were rationalized to the amount of DNA present in each well. In experiment 6, procollagen was assayed in the culture medium collected in step b) in accordance with the method described in example 4.

[5] = test system: type I collagen in the ECM; assay: Assay of type I collagen in the ECM (anticollagen I antibody, europium TRF, Delfia) after NH4OH lysis of fibroblasts; type: cell-based, human; design: key to Coll I Mean: europium fluorescence normalized to measured dsDNA; conditions: for Coll I (RFU) Mean: 48 hours, donor; for Versus control Mean (Coll I): control = 100.00; for Coll I Mean / Ratio: Coll I/DNA Mean / Stat Mean (Coll I/DNA, control = 100.00): ECM
Procedure: After 48 hours of culture postconfluency, the culture medium was removed and discarded. A lysis step was carried out: 110 μl of an ammonium hydroxide solution at 20 mM for 10 minutes at room temperature and with stirring. The lysate was collected and analysed. The double-stranded DNA contained in the lysate was assayed by using the bisbenzimide method (Picogreen Kit, Invitrogen). The collagen in the ECM was assayed directly on the ECM by using an anticollagen I antibody. A secondary antibody conjugated to europium was used with a detection reagent and the fluorescence was measured. (Delfia® kit—Perkin Elmer). The fluorescence results were rationalized relative to the measured dsDNA rate. The experiment was carried out according to the protocol described in example 1 with fibroblasts extracted from a biopsy from a donor. […] The experiment was carried out according to the protocol described in example 1 with fibroblasts extracted from a biopsy of a donor.

[6] = ascorbic acid 0.1 μM, Example 4
[7] = ascorbic acid 100 μM, Example 4
[8] = ascorbic acid 100 μM, Example 5

O=C1O[C@H]([C@@H](O)CO)C(O)=C1O [Ascorbic acid, ascorbic acid]
DNA Mean ([1]; 50 μM, Example 6 and 7): 497.4 and 497.3
DNA Mean [1, 6]: 318
DNA Mean ([1]; ascorbic acid 1 μM, Example 4): 303
DNA Mean ([1]; ascorbic acid 5 μM, Table 5.3): 220
DNA Mean ([1]; ascorbic acid 5 μM, Table 5.4): 212
DNA Mean ([1]; ascorbic acid 10 μM, Example 4): 281
DNA Mean ([1]; ascorbic acid 10 μM, Table 5.3): 249
DNA Mean ([1]; ascorbic acid 10 μM, Table 5.4): 241
DNA Mean ([1]; ascorbic acid 25 μM, Table 5.3): 232
DNA Mean ([1]; ascorbic acid 25 μM, Table 5.4): 236
DNA Mean ([1]; ascorbic acid 50 μM, Example 4): 279
DNA Mean ([1]; ascorbic acid 50 μM, Table 5.3): 180
DNA Mean ([1]; ascorbic acid 50 μM, Table 5.4): 236
DNA Mean [1, 7]: 291
DNA Mean ([1]; ascorbic acid 100 μM, Table 5.3): 204
DNA Mean ([1]; ascorbic acid 100 μM, Table 5.4): 246
Ratio: Coll/DNA Mean (Coll V) ([2]; ascorbic acid 5 μM): 59.83
Coll V (RFU) Mean ([2]; ascorbic acid 5 μM): 12644 RFU
Versus control Mean (Coll V) ([2]; ascorbic acid 5 μM): 117.16
Ratio: Coll/DNA Mean (Coll V) ([2]; ascorbic acid 10 μM): 58.76
Coll V (RFU) Mean ([2]; ascorbic acid 10 μM): 14127 RFU
Versus control Mean (Coll V) ([2]; ascorbic acid 10 μM): 115.06
Ratio: Coll/DNA Mean (Coll V) ([2]; ascorbic acid 25 μM): 68.69
Coll V (RFU) Mean ([2]; ascorbic acid 25 μM): 16172 RFU
Versus control Mean (Coll V) ([2]; ascorbic acid 25 μM): 134.49
Ratio: Coll/DNA Mean (Coll V) ([2]; ascorbic acid 50 μM): 68.86
Coll V (RFU) Mean ([2]; ascorbic acid 50 μM): 16230 RFU
Versus control Mean (Coll V) ([2]; ascorbic acid 50 μM): 134.82
Ratio: Coll/DNA Mean (Coll V) ([2]; ascorbic acid 100 μM): 73.12
Coll V (RFU) Mean ([2]; ascorbic acid 100 μM): 17994 RFU
Versus control Mean (Coll V) ([2]; ascorbic acid 100 μM): 143.17
procollagen concentration in the intracellular compartment ([3]; Example 4): less than that observed with the untreated control
Procoll Mean (intracellular procollagen) ([3]; ascorbic acid 0.1 μM): 116 ng/mL
Ratio: Procoll/DNA Mean ([3]; ascorbic acid 0.1 μM): 0.37
Stat Mean (Procoll/DNA, control = 100.00) ([3]; ascorbic acid 0.1 μM): 102.85
Procoll Mean (intracellular procollagen) ([3]; ascorbic acid 1 μM): 108 ng/mL
Ratio: Procoll/DNA Mean ([3]; ascorbic acid 1 μM): 0.36
Stat Mean (Procoll/DNA, control = 100.00) ([3]; ascorbic acid 1 μM): 100.76
Procoll Mean (intracellular procollagen) ([3]; ascorbic acid 10 μM): 114 ng/mL
Ratio: Procoll/DNA Mean ([3]; ascorbic acid 10 μM): 0.41
Stat Mean (Procoll/DNA, control = 100.00) ([3]; ascorbic acid 10 μM): 108.02
Procoll Mean (intracellular procollagen) ([3]; ascorbic acid 50 μM): 60 ng/mL
Ratio: Procoll/DNA Mean ([3]; ascorbic acid 50 μM): 0.22
Stat Mean (Procoll/DNA, control = 100.00) ([3]; ascorbic acid 50 μM): 60.83
Procoll Mean (intracellular procollagen) ([3]; ascorbic acid 100 μM): 66 ng/mL
Ratio: Procoll/DNA Mean ([3]; ascorbic acid 100 μM): 0.23
Stat Mean (Procoll/DNA, control = 100.00) ([3]; ascorbic acid 100 μM): 63.69
Procoll (ng/ml) Mean ([4]; 50 μM, Example 7): 1983 ng/mL
Ratio: Procoll/DNA Mean ([4]; 50 μM, Example 7): 4.01
Versus control Mean (ProColl/DNA) ([4]; 50 μM, Example 7, control = 100): 171.17
Procoll Mean (extracellular procollagen) ([4]; ascorbic acid 0.1 μM): 1987 ng/mL
Ratio: Procoll/DNA Mean ([4]; ascorbic acid 0.1 μM): 6.26
Stat Mean (Procoll/DNA, control = 100.00) ([4]; ascorbic acid 0.1 μM): 100.75
Procoll Mean (extracellular procollagen) ([4]; ascorbic acid 1 μM): 1983 ng/mL
Ratio: Procoll/DNA Mean ([4]; ascorbic acid 1 μM): 6.57
Stat Mean (Procoll/DNA, control = 100.00) ([4]; ascorbic acid 1 μM): 105.74
Procoll Mean (extracellular procollagen) ([4]; ascorbic acid 10 μM): 2756 ng/mL
Ratio: Procoll/DNA Mean ([4]; ascorbic acid 10 μM): 9.83
Stat Mean (Procoll/DNA, control = 100.00) ([4]; ascorbic acid 10 μM): 158.16
Procoll Mean (extracellular procollagen) ([4]; ascorbic acid 50 μM): 2852 ng/mL
Ratio: Procoll/DNA Mean ([4]; ascorbic acid 50 μM): 10.25
Stat Mean (Procoll/DNA, control = 100.00) ([4]; ascorbic acid 50 μM): 164.89
Procoll Mean (extracellular procollagen) ([4]; ascorbic acid 100 μM): 2845 ng/mL
Ratio: Procoll/DNA Mean ([4]; ascorbic acid 100 μM): 9.78
Stat Mean (Procoll/DNA, control = 100.00) ([4]; ascorbic acid 100 μM): 157.30
Coll I (RFU) Mean ([5]; 50 μM, Example 6): 169132 RFU
Ratio: Coll/DNA Mean (Coll I) ([5]; 50 μM, Example 6): 340.49
Versus control Mean (Coll I) ([5]; 50 μM, Example 6): 119.53
effect of stimulation on the content of collagen I in the ECM (dose dependence) ([5]; Example 4, 0.1 to 100 μM): dose-dependent up to 50 μM
optimum dose for efficacy, collagen I assay ([5]; Example 5, 5 to 100 μM tested): 50 µM
stimulation of the synthesis of collagen I and V ([5]; Example 5, collagen I and V in the ECM): induces stimulation of the synthesis of collagen I and V with a significant dose effect
amount of collagen I in the ECM ([5]; Example 6, ascorbic acid at 50 μM, vegetable extract 1% (v/v)): significant increase
Coll I Mean [5, 6]: 74156
Ratio: Coll I/DNA Mean [5, 6]: 233.65
Stat Mean (Coll I/DNA, control = 100.00) [5, 6]: 105.33
Coll I Mean ([5]; ascorbic acid 1 μM, Example 4): 74419
Ratio: Coll I/DNA Mean ([5]; ascorbic acid 1 μM, Example 4): 246.46
Stat Mean (Coll I/DNA, control = 100.00) ([5]; ascorbic acid 1 μM, Example 4): 111.10
Coll I (RFU) Mean ([5]; ascorbic acid 5 μM, Example 5): 59802 RFU
Ratio: Coll/DNA Mean (Coll I) ([5]; ascorbic acid 5 μM, Example 5): 273.40
Versus control Mean (Coll I) ([5]; ascorbic acid 5 μM, Example 5): 125.69
Coll I (RFU) Mean ([5]; ascorbic acid 10 μM, Example 5): 59569 RFU
Coll I Mean ([5]; ascorbic acid 10 μM, Example 4): 78694
Ratio: Coll I/DNA Mean ([5]; ascorbic acid 10 μM, Example 4): 280.82
Stat Mean (Coll I/DNA, control = 100.00) ([5]; ascorbic acid 10 μM, Example 4): 126.59
Ratio: Coll/DNA Mean (Coll I) ([5]; ascorbic acid 10 μM, Example 5): 239.53
Versus control Mean (Coll I) ([5]; ascorbic acid 10 μM, Example 5): 110.12
Coll I (RFU) Mean ([5]; ascorbic acid 25 μM, Example 5): 59088 RFU
Ratio: Coll/DNA Mean (Coll I) ([5]; ascorbic acid 25 μM, Example 5): 254.84
Versus control Mean (Coll I) ([5]; ascorbic acid 25 μM, Example 5): 117.16
Coll I (RFU) Mean ([5]; ascorbic acid 50 μM, Example 5): 54454 RFU
Coll I Mean ([5]; ascorbic acid 50 μM, Example 4): 79146
Ratio: Coll I/DNA Mean ([5]; ascorbic acid 50 μM, Example 4): 284.31
Stat Mean (Coll I/DNA, control = 100.00) ([5]; ascorbic acid 50 μM, Example 4): 128.17
Ratio: Coll/DNA Mean (Coll I) ([5]; ascorbic acid 50 μM, Example 5): 309.87
Versus control Mean (Coll I) ([5]; ascorbic acid 50 μM, Example 5): 130.66
Coll I (RFU) Mean [5, 8]: 50765 RFU
Coll I Mean [5, 7]: 79796
Ratio: Coll I/DNA Mean [5, 7]: 273.96
Stat Mean (Coll I/DNA, control = 100.00) [5, 7]: 123.50
Ratio: Coll/DNA Mean (Coll I) [5, 8]: 249.31
Versus control Mean (Coll I) [5, 8]: 114.62
